Measured values published in ChEMBL document CHEMBL1201862, “PubChem BioAssay data set” (2004).
Values joined by “and” are separate entries in the source; they are usually repeats but may differ in a detail not shown here. Equal values may be shown once.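 Five concentrations, 48 hours, 96-well plates. Abbreviation: GI50, concentration required for 50% inhibition of growth.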 Active and inactive are the calls of the source. Cut-off read from the data, not from the text of the source: active = GI50 up to about 1.1 µM and inactive = higher.

Tests used:
Assay in all cases: NCI anticancer screen, dose series, 48 h
EKVX = test system: EKVX
TK-10 = test system: TK-10
SF-268 = test system: SF-268
IGROV-1 = test system: IGROV-1
HCC 2998 = test system: HCC 2998
A498 = test system: A498
SW-620 = test system: SW-620
SK-MEL-5 = test system: SK-MEL-5
HT-29 = test system: HT-29
SK-MEL-28 = test system: SK-MEL-28
M14 = test system: M14
CAKI-1 = test system: CAKI-1
OVCAR-5 = test system: OVCAR-5
UO-31 = test system: UO-31
SK-OV-3 = test system: SK-OV-3
UACC-257 = test system: UACC-257
SR = test system: SR

## CCOC(=O)C(C(O)c1ccc([N+](=O)[O-])cc1)P(=O)(OCC)OCC (stereo not drawn)
EKVX
  GI50: > 100 µM (inactive)
TK-10
  GI50: > 100 µM (inactive)
SF-268
  GI50: > 100 µM (inactive)
IGROV-1
  GI50: > 100 µM (inactive)
HCC 2998
  GI50: > 100 µM (inactive)
A498
  GI50: > 100 µM (inactive)
SW-620
  GI50: 57.3 µM (inactive)
SK-MEL-5
  GI50: 99.8 µM (inactive)
HT-29
  GI50: > 100 µM (inactive)
SK-MEL-28
  GI50: > 100 µM (inactive)
M14
  GI50: > 100 µM (inactive)
CAKI-1
  GI50: > 100 µM (inactive)
OVCAR-5
  GI50: > 100 µM (inactive)

## CCOC(=O)c1ccc(/N=C/c2ccc(N(CCC#N)S(=O)(=O)c3ccccc3)cc2C)cc1
EKVX
  GI50: 52.8 µM (inactive)
TK-10
  GI50: 49.3 µM (inactive)
SF-268
  GI50: 26.1 µM (inactive)
IGROV-1
  GI50: > 100 µM (inactive)
UO-31
  GI50: 28.3 µM (inactive)
HCC 2998
  GI50: 28.7 µM (inactive)
SK-OV-3
  GI50: 76.9 µM (inactive)
A498
  GI50: > 100 µM (inactive)
SW-620
  GI50: 76.6 µM (inactive)
SK-MEL-5
  GI50: 80.7 µM (inactive)
HT-29
  GI50: 37.2 µM (inactive)
SK-MEL-28
  GI50: 61.2 µM (inactive)
UACC-257
  GI50: 50 µM (inactive)
M14
  GI50: 25.4 µM (inactive)
CAKI-1
  GI50: 39.4 µM (inactive)
OVCAR-5
  GI50: 31.8 µM (inactive)

## O=c1oc2ccccc2[n+]([O-])c1-c1ccccc1
EKVX
  GI50: > 100 µM (inactive)
TK-10
  GI50: > 100 µM (inactive)
SF-268
  GI50: > 100 µM (inactive)
IGROV-1
  GI50: > 100 µM (inactive)
UO-31
  GI50: > 100 µM (inactive)
HCC 2998
  GI50: > 100 µM (inactive)
SK-OV-3
  GI50: > 100 µM (inactive)
A498
  GI50: > 100 µM (inactive)
SW-620
  GI50: > 100 µM (inactive)
SK-MEL-5
  GI50: > 100 µM (inactive)
HT-29
  GI50: > 100 µM (inactive)
SK-MEL-28
  GI50: > 100 µM (inactive)
UACC-257
  GI50: > 100 µM (inactive)
M14
  GI50: > 100 µM (inactive)
CAKI-1
  GI50: > 100 µM (inactive)
OVCAR-5
  GI50: > 100 µM (inactive)

## Cc1cc(C)c(C(=O)C(C)C(c2ccccc2)c2ccc(Cl)cc2)c(C)c1 (stereo not drawn)
EKVX
  GI50: > 100 µM (inactive)
TK-10
  GI50: > 100 µM (inactive)
SF-268
  GI50: > 100 µM (inactive)
IGROV-1
  GI50: > 100 µM (inactive)
UO-31
  GI50: 50.8 µM (inactive)
SK-OV-3
  GI50: > 100 µM (inactive)
SW-620
  GI50: > 100 µM (inactive)
SK-MEL-5
  GI50: > 100 µM (inactive)
HT-29
  GI50: 34.4 µM (inactive) and 43.5 µM (inactive)
SR
  GI50: 76.2 µM (inactive) and 64.6 µM (inactive)
SK-MEL-28
  GI50: > 100 µM (inactive)
UACC-257
  GI50: 44.2 µM (inactive) and 38.5 µM (inactive)
M14
  GI50: 82.8 µM (inactive) and 75.7 µM (inactive)
CAKI-1
  GI50: > 100 µM (inactive)

## C=C1C(=O)OC2C1C(OC(=O)/C(=C/C)COC(C)=O)CC1(CO1)C1C(OC(=O)/C(=C/C)CO)C=C(C)C21 (stereo not drawn)
EKVX
  GI50: 2 µM (inactive)
TK-10
  GI50: 2.3 µM (inactive)
SF-268
  GI50: 2.75 µM (inactive)
IGROV-1
  GI50: 1.89 µM (inactive)
UO-31
  GI50: 3.14 µM (inactive)
HCC 2998
  GI50: 1.92 µM (inactive)
SK-OV-3
  GI50: 17.1 µM (inactive)
A498
  GI50: 3.03 µM (inactive)
SW-620
  GI50: 0.736 µM (active)
SK-MEL-5
  GI50: 2.29 µM (inactive)
HT-29
  GI50: 1.64 µM (inactive)
SK-MEL-28
  GI50: 1.82 µM (inactive)
UACC-257
  GI50: 2.04 µM (inactive)
M14
  GI50: 1.67 µM (inactive)
CAKI-1
  GI50: 0.502 µM (active)
OVCAR-5
  GI50: 12.2 µM (inactive)

## Cc1c2cc[n+](C)cc2c(C)c2c1[nH]c1ccc(O)c(OCC(F)(F)F)c12
EKVX
  GI50: 2.68 µM (inactive)
TK-10
  GI50: 11.2 µM (inactive)
SF-268
  GI50: 0.164 µM (active)
IGROV-1
  GI50: 5.86 µM (inactive)
UO-31
  GI50: 7.06 µM (inactive)
HCC 2998
  GI50: 4.55 µM (inactive)
SK-OV-3
  GI50: 6.75 µM (inactive)
A498
  GI50: 10.8 µM (inactive)
SW-620
  GI50: 6.67 µM (inactive)
SK-MEL-5
  GI50: 1.51 µM (inactive)
HT-29
  GI50: 9.82 µM (inactive)
SK-MEL-28
  GI50: 5.65 µM (inactive)
UACC-257
  GI50: 6.31 µM (inactive)
M14
  GI50: 6.22 µM (inactive)
CAKI-1
  GI50: 12.8 µM (inactive)
OVCAR-5
  GI50: 7.11 µM (inactive)

## COc1ccc(C/C(=N/O)C(=O)NCCc2cc(Br)c(OCCCN(C)C)c(Br)c2)cc1Br [APLYSAMINE 2]
EKVX
  GI50: 19.6 µM (inactive)
TK-10
  GI50: 29.8 µM (inactive)
SF-268
  GI50: 18.5 µM (inactive)
UO-31
  GI50: 23.1 µM (inactive)
HCC 2998
  GI50: 14.1 µM (inactive)
SW-620
  GI50: 16.6 µM (inactive)
HT-29
  GI50: 5.92 µM (inactive)
SK-MEL-28
  GI50: 17.7 µM (inactive)
UACC-257
  GI50: 16.1 µM (inactive)
M14
  GI50: 17.7 µM (inactive)
CAKI-1
  GI50: 25.6 µM (inactive)
OVCAR-5
  GI50: 22.3 µM (inactive)
